Results reported in patent publication US5534508A, “Cephem compounds and antimicrobial agents” (Katayama Seiyakusyo Co., Ltd., priority 1993, dated 1996).
In brackets after ≈: the same amount, converted by molar mass.

Tests used:
Format in all cases: cell-based
[1] = test system: E. cloacae ATCC 13407; assay: MIC against standard strains (Table 1), E. cloacae ATCC 13407; details: Enterobacter cloacae, ATCC13407, Muller-Hinton agar, overnight 37° C., read-out: MIC (minimum growth inhibitory concentration)
Protocol: (§1) The minimum growth inhibitory concentration (MIC, μg/ml) of the compounds for each of the 25 standard laboratory strains (standard strains) shown in Table 1 was determined in accordance with the standard method of the Japan Chemotherapical Society (Chemotherapy, 29, 76-79 (1981) under "Re-revision of the measuring methods of minimum growth inhibitory concentration (MIC)").
(§2) That is, by using each test strain cultured overnight at 37° C. in a Muller-Hinton broth, there was prepared a bacterial solution with a cell density of 1×10^6 CFU/ml in the same broth. The bacterial solution was inoculated into the Muller-Hinton agar media each containing respectively one test agent (i.e., compound) and, after overnight incubation at 37° C., the minimum concentration that inhibited growth of the bacteria was determined and expressed as MIC.
(§3) Staphylococcus aureus 167 and Staphylococcus aureus 195 used in the test were MRSA. CTM (cefotiam) and FMOX (flomoxef) were used as the control agents.

[2] = test system: S. aureus 167; assay: MIC against standard strains (Table 1), S. aureus 167 (MRSA); details: Staphylococcus aureus, Muller-Hinton agar, overnight 37° C., read-out: MIC (minimum growth inhibitory concentration)
Protocol: as §1, §2, §3

[3] = test system: P. aeruginosa NCTC 10490; assay: MIC against standard strains (Table 1), P. aeruginosa NCTC 10490; details: Pseudomonas aeruginosa, NCTC10490, Muller-Hinton agar, overnight 37° C., read-out: MIC (minimum growth inhibitory concentration)
Protocol: as §1, §2, §3

[4] = test system: M. morganii IFO 3848; assay: MIC against standard strains (Table 1), M. morganii IFO 3848; details: Morganella morganii, IFO3848, Muller-Hinton agar, overnight 37° C., read-out: MIC (minimum growth inhibitory concentration)
Protocol: as §1, §2, §3

[5] = test system: E. coli CSH2(RK1); assay: MIC against standard strains (Table 1), E. coli CSH2(RK1); details: Escherichia coli, read-out: MIC (minimum growth inhibitory concentration)
Protocol: as §1, §2, §3

[6] = test system: S. marcescens No. 16-2; assay: MIC against standard strains (Table 1), S. marcescens No. 16-2; details: Serratia marcescens, NO.162, Muller-Hinton agar, overnight 37° C., read-out: MIC (minimum growth inhibitory concentration)
Protocol: as §1, §2, §3

[7] = test system: P. cepacia CN 9113; assay: MIC against standard strains (Table 1), P. cepacia CN 9113; details: Burkholderia cepacia, CN9113, Muller-Hinton agar, overnight 37° C., read-out: MIC (minimum growth inhibitory concentration)
Protocol: as §1, §2, §3

[8] = test system: S. aureus Smith; assay: MIC against standard strains (Table 1), S. aureus Smith; details: Staphylococcus aureus, Muller-Hinton agar, overnight 37° C., read-out: MIC (minimum growth inhibitory concentration)
Protocol: as §1, §2, §3

[9] = test system: E. coli JC-2; assay: MIC against standard strains (Table 1), E. coli JC-2; details: Escherichia coli, JC2, Muller-Hinton agar, overnight 37° C., read-out: MIC (minimum growth inhibitory concentration)
Protocol: as §1, §2, §3

[10] = test system: S. epidemidis IAM 1296; assay: MIC against standard strains (Table 1), S. epidemidis IAM 1296; details: Muller-Hinton agar, overnight 37° C., read-out: MIC (minimum growth inhibitory concentration)
Protocol: as §1, §2, §3

[11] = test system: A. faecalis ATCC 3750; assay: MIC against standard strains (Table 1), A. faecalis ATCC 3750; details: Alcaligenes faecalis, ATCC3750, Muller-Hinton agar, overnight 37° C., read-out: MIC (minimum growth inhibitory concentration)
Protocol: as §1, §2, §3

[12] = test system: A. calcoaceticos T59; assay: MIC against standard strains (Table 1), A. calcoaceticos T59; details: Muller-Hinton agar, overnight 37° C., read-out: MIC (minimum growth inhibitory concentration)
Protocol: as §1, §2, §3

[13] = test system: P. aeruginosa AKR17; assay: MIC against standard strains (Table 1), P. aeruginosa AKR17; details: Pseudomonas aeruginosa, Muller-Hinton agar, overnight 37° C., read-out: MIC (minimum growth inhibitory concentration)
Protocol: as §1, §2, §3

[14] = test system: M. luteus ATCC 9341; assay: MIC against standard strains (Table 1), M. luteus ATCC 9341; details: Micrococcus luteus, ATCC9341, Muller-Hinton agar, overnight 37° C., read-out: MIC (minimum growth inhibitory concentration)
Protocol: as §1, §2, §3

[15] = test system: C. freundii ATCC 8090; assay: MIC against standard strains (Table 1), C. freundii ATCC 8090; details: Citrobacter freundii, ATCC8090, Muller-Hinton agar, overnight 37° C., read-out: MIC (minimum growth inhibitory concentration)
Protocol: as §1, §2, §3

[16] = test system: clinically isolated MRSA; assay: Antibacterial potency against clinically isolated MRSA (47 strains); details: Staphylococcus aureus; for MIC50: concentration inhibiting growth of 50% of 47 clinically isolated MRSA strains; for MIC90: concentration inhibiting growth of 90% of 47 clinically isolated MRSA strains
Protocol: A test on the antibacterial potency against clinically isolated MRSA was conducted in the following way.
That is, using 47 strains of clinically isolated MRSA, MIC was determined for each of the test strains in accordance with the standard method of the Japan Chemotherapical Society as in Test Example 1, and the minimum growth inhibitory concentration which inhibited growth of 50% of the strains tested was expressed as MIC50 (μg/ml), and the minimum growth inhibitory concentration which inhibited growth of 90% of the strains tested was expressed as MIC90 (μg/ml).
In this test, FMOX was used as the control agent.

[17] = test system: S. aureus 195; assay: MIC against standard strains (Table 1), S. aureus 195 (MRSA); details: Staphylococcus aureus, Muller-Hinton agar, overnight 37° C., read-out: MIC (minimum growth inhibitory concentration)
Protocol: as §1, §2, §3

[18] = test system: K. pneuminiae No. 42; assay: MIC against standard strains (Table 1), K. pneuminiae No. 42; details: Muller-Hinton agar, overnight 37° C., read-out: MIC (minimum growth inhibitory concentration)
Protocol: as §1, §2, §3

[19] = test system: P. vulugaris OX-19; assay: MIC against standard strains (Table 1), P. vulugaris OX-19; details: Muller-Hinton agar, overnight 37° C., read-out: MIC (minimum growth inhibitory concentration)
Protocol: as §1, §2, §3

[20] = test system: S. aureus 209p JC-1; assay: MIC against standard strains (Table 1), S. aureus 209p JC-1; details: Staphylococcus aureus, Muller-Hinton agar, overnight 37° C., read-out: MIC (minimum growth inhibitory concentration)
Protocol: as §1, §2, §3

[21] = test system: S. marcescens IAM 1184; assay: MIC against standard strains (Table 1), S. marcescens IAM 1184; details: Serratia marcescens, IAM1184, Muller-Hinton agar, overnight 37° C., read-out: MIC (minimum growth inhibitory concentration)
Protocol: as §1, §2, §3

[22] = test system: K. pneuminiae IFO 3317; assay: MIC against standard strains (Table 1), K. pneuminiae IFO 3317; details: Muller-Hinton agar, overnight 37° C., read-out: MIC (minimum growth inhibitory concentration)
Protocol: as §1, §2, §3

[23] = test system: B. subtilis ATCC 6633; assay: MIC against standard strains (Table 1), B. subtilis ATCC 6633; details: Bacillus subtilis, ATCC6633, Muller-Hinton agar, overnight 37° C., read-out: MIC (minimum growth inhibitory concentration)
Protocol: as §1, §2, §3

[24] = test system: E. cloacae Nek39; assay: MIC against standard strains (Table 1), E. cloacae Nek39; details: Enterobacter cloacae, Muller-Hinton agar, overnight 37° C., read-out: MIC (minimum growth inhibitory concentration)
Protocol: as §1, §2, §3

[25] = test system: E. coli CSH2(RE45); assay: MIC against standard strains (Table 1), E. coli CSH2(RE45); details: Escherichia coli, read-out: MIC (minimum growth inhibitory concentration)
Protocol: as §1, §2, §3

[26] = test system: P. mirabilis IFO 3849; assay: MIC against standard strains (Table 1), P. mirabilis IFO 3849; details: Proteus mirabilis, IFO3849, Muller-Hinton agar, overnight 37° C., read-out: MIC (minimum growth inhibitory concentration)
Protocol: as §1, §2, §3

SMILES | MIC [1] | MIC [2] | MIC [3] | MIC [4] | MIC [5] | MIC [6] | MIC [7] | MIC [8] | MIC [9] | MIC [10] | MIC [11] | MIC [12] | MIC [13] | MIC [14] | MIC [15] | MIC50 [16] | MIC90 [16] | MIC [17] | MIC [18] | MIC [19] | also measured
NC(=O)Nc1ccc[n+](C/C=C/C2=C(C(=O)[O-])N3C(=O)[C@@H](NC(=O)/C(=N\O)c4csc(N)n4)[C@H]3SC2)c1 [Compound 13, 7β-[2-(2-aminothiazol-4-yl)-2-syn-hydroxyiminoacetamido]-3-[(E)-3-(3-ureidopyridinio) -1-propenyl]-3-cephem-4-carboxylate] | 0.1 µg/mL (≈ 0.184 µM) | 12.5 µg/mL (≈ 23 µM) | 1.56 µg/mL (≈ 2.86 µM) | 0.025 µg/mL (≈ 0.0459 µM) | 0.05 µg/mL (≈ 0.0918 µM) | 6.25 µg/mL (≈ 11.5 µM) | > 100 µg/mL | 0.2 µg/mL (≈ 0.367 µM) | 0.025 µg/mL (≈ 0.0459 µM) | 0.025 µg/mL (≈ 0.0459 µM) | 0.78 µg/mL (≈ 1.43 µM) | 3.13 µg/mL (≈ 5.75 µM) | > 100 µg/mL | 0.05 µg/mL (≈ 0.0918 µM) | 0.025 µg/mL (≈ 0.0459 µM) | 0.83 µg/mL (≈ 1.52 µM) | 5.08 µg/mL (≈ 9.33 µM) | 1.56 µg/mL (≈ 2.86 µM) | 0.05 µg/mL (≈ 0.0918 µM) | 0.05 µg/mL (≈ 0.0918 µM) | MIC [20]: 0.1 µg/mL (≈ 0.184 µM); MIC [21]: 0.05 µg/mL (≈ 0.0918 µM); MIC [22]: 0.025 µg/mL (≈ 0.0459 µM); MIC [23]: 0.2 µg/mL (≈ 0.367 µM); MIC [24]: 6.25 µg/mL (≈ 11.5 µM); MIC [25]: 0.05 µg/mL (≈ 0.0918 µM); MIC [26]: 0.05 µg/mL (≈ 0.0918 µM)
NC(=O)c1ccc[n+](C/C=C/C2=C(C(=O)[O-])N3C(=O)[C@@H](NC(=O)/C(=N\O)c4csc(N)n4)[C@H]3SC2)c1 [Compound 18, 7β-[2-(2-aminothiazol-4-yl)-2-syn-hydroxyiminoacetamido]-3-[(E)-3-(3-carbamoylpyridinio)-1-propenyl]-3-cephem-4-carboxylate] | 0.1 µg/mL (≈ 0.189 µM) | 50 µg/mL (≈ 94.4 µM) | 1.56 µg/mL (≈ 2.95 µM) | 0.05 µg/mL (≈ 0.0944 µM) | 0.1 µg/mL (≈ 0.189 µM) | 12.5 µg/mL (≈ 23.6 µM) | > 100 µg/mL | 0.1 µg/mL (≈ 0.189 µM) | 0.05 µg/mL (≈ 0.0944 µM) | 0.05 µg/mL (≈ 0.0944 µM) | 0.78 µg/mL (≈ 1.47 µM) | 3.13 µg/mL (≈ 5.91 µM) | > 100 µg/mL | 0.05 µg/mL (≈ 0.0944 µM) | 0.05 µg/mL (≈ 0.0944 µM) | 2.63 µg/mL (≈ 4.97 µM) | 22.2 µg/mL (≈ 41.9 µM) | 3.13 µg/mL (≈ 5.91 µM) | 0.1 µg/mL (≈ 0.189 µM) | 0.1 µg/mL (≈ 0.189 µM) | MIC [20]: 0.1 µg/mL (≈ 0.189 µM); MIC [21]: 0.05 µg/mL (≈ 0.0944 µM); MIC [22]: 0.05 µg/mL (≈ 0.0944 µM); MIC [23]: 0.1 µg/mL (≈ 0.189 µM); MIC [24]: 6.25 µg/mL (≈ 11.8 µM); MIC [25]: 0.05 µg/mL (≈ 0.0944 µM); MIC [26]: 0.1 µg/mL (≈ 0.189 µM)
